Laboratory results from patent publication US20240317748A1, “CARBONYL SUBSTITUTED DIAZASPIRO COMPOUNDS AND ITS USE” (BIONOVA PHARMACEUTICALS (SHANGHAI) LIMITED, priority 2021, published 2024).

Experiments:
Menin-MLL1 = molecular target: T1, Menin-MLL1 (Homo sapiens, UniProt O00255); assay: Menin-MLL1 inhibition assay (fluorescence polarization, Menin protein + FAM-MLL peptide); assay type: binding; details: Menin (2-610) isoform 2, FAM-labelled MLL peptide, mP readout; read-out: Biochemical assay Menin-MLL1 IC50
T1 construct: Menin (2-610) isform2; purchased ChemPartner 2020111101
T1 sequence (O00255 2-610): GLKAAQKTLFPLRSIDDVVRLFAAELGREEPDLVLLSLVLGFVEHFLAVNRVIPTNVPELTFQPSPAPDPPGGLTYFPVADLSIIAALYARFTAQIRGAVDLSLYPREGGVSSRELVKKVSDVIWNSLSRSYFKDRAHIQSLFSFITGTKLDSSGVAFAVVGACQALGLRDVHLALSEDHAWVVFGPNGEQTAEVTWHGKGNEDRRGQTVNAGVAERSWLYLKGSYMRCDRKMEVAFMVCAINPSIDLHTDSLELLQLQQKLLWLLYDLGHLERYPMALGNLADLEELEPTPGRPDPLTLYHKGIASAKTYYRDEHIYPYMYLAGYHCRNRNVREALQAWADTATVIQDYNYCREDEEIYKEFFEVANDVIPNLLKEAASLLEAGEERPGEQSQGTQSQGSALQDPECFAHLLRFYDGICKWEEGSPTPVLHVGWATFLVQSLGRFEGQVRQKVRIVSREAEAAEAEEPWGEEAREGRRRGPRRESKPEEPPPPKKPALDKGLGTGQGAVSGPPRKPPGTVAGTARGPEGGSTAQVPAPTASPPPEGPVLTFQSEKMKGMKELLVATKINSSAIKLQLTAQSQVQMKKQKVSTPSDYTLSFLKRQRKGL
Protocol: 1× assay bu9ffer (Tris 7.5 50 mM, NaCl 50 mM, DTT 1 mM, Tween-20 0.01%) was prepared and test compounds solution (10 mM in DMSO, Sigma, Cat. No. 34869) were transferred to assay plate (384-well plate, Perkin Elmer, Cat. No. 6007279) by Echo. The final fraction of DMSO is 1%. 20 nM of Menin protein (Menin (2-610) isform2, ChemPartner, Cat. No. 2020111101) in 1× assay buffer was added to prepare 2× enzyme solution. Then 10 nM of MLL-peptide (Ac-SRWRFPARPGTGRR-Ahx-Ahx-K(FAM)-NH2, GL Biochem (Shanghai)), Cat. No. 833831/202009220104) in 1× assay buffer was added to prepare 2× substrate solution. 10 μL of 2× enzyme solution was transferred to assay plate or 10 μL of 1× assay buffer for low control group. 10 μL of 2× substrate solution was added to each well to start reaction. mP data on Envision (Ex480/Em535(s), Em535(p)) was collected.
Compound potencies were determined by first calculating % inhibition at each compound concentration according to equation 1:
Inhibition %=(Max−Signal)/(Max−Min)*100 (Equation 1)
Y=Bottom+(Top-Bottom)/(1+(IC50/X)[…]), where Y is % inhibition and X is compound concentration (Equation 2)

MV-4-11 cells = assay: Cell proliferation assay (CellTiter-Glo), MV-4-11; assay type: cell-based, human; details: Homo sapiens, MV4-11, 96 h; MV-4-11 (MLL-AF4), 4 days incubation; read-out: Cell antiproliferation assay MV-4-11 IC50
Protocol: The antiproliferative activity of test compounds was assessed in human leukemia cell lines. The cell line MV4-11, MOLM13 and OCI-AML3, which expresses the MLL fusion protein MLL-AF4, MLL-AF9 and carry the NPM1c gene mutation, respectively, were tested. HL-60 was used as a control cell line containing two MLL wildtype alleles in order to exclude compounds that display general cytotoxic effect. MV4-11 cells were cultured in IMDM supplemented with 10% FBS, MOLM13 and OCI-AML3 cells were cultured in RPMI1640 supplemented with 20% FBS, and HL-60 cells were cultured in IMDM supplemented with 20% FBS. Corresponding cells (MV4-11, MOLM13, OCI-AML3 or HL-60 cell line) were seeded in 100 uL medium per well in 96-well plate (white wall with clear bottom, tissue culture treated, Corning, Cat. No. CLS3903; Lot.No. 30419025). Plates were placed in the CO2 incubator overnight. Compounds solution (2 mM starting, 4-fold serial dilution) were prepared and added to the wells containing 100 μL of the culture medium with HPD300 according to the plate map and centrifuge at 1000 rpm for 1 minutes (200-fold dilution totally). MV4-11, MOLM13, OCI-AML3 and HL-60 cells were incubated with the compounds for 4, 12, 5 and 4 days, respectively, under 5% CO2 at 37° C., respectively. 100 μL of CellTiter-Glo reagent (Promega, Cat. No. G7573, Lot. No. 0000416710) was added to the assay plate by Multidrop Combi instrument, contents were mixed for 10 minutes on an orbital shaker to induce cell lysis. After incubation at room temperature for 10 mins, clear bottom with white back seal was pasted and luminescence with Envision was read.

IC50 (Menin-MLL1) [nM]	IC50 (MV-4-11 cells) [nM]	SMILES
10.1	267	CCN(C(=O)c1cc(F)ccc1Oc1cncnc1N1CC2(CCN(C(=O)[C@@H]3C[C@@H](F)CN3)CC2)C1)C1CC1 [Example 20]
4	5.6	CO[C@H]1CCN[C@@H]1C(=O)N1CCC2(CC1)CN(c1ncnnc1Oc1ccc(F)cc1-c1ccc(C#N)cc1C1CC1)C2 [Example 96]
24	1010	CCN(C(=O)c1cc(F)ccc1Oc1nncnc1N1CC2(CCN(C(=O)[C@@H]3NCC[C@H]3CF)CC2)C1)C(C)C [Example 89]
11.4	144	CCN(C(=O)c1cc(F)ccc1Oc1cncnc1N1CC2(CCN(C(=O)[C@@H]3C[C@@H](c4ccccc4)CN3)CC2)C1)C(C)C [Example 48]
4	17.1	CC(C)N(CC(F)F)C(=O)c1cc(F)ccc1Oc1nncnc1N1CC2(CCN(C(=O)[C@H]3NC[C@@H]4CCC[C@@H]43)CC2)C1 [Example 105]
2.3	29.5	CCN(C(=O)c1cc(F)ccc1Oc1nncnc1N1CC2(CCN(C(=O)[C@H]3NC[C@@H]4CC(F)(F)C[C@@H]43)CC2)C1)C(C)C (single isomer, unassigned) [Example 98d]
3.9	30.7	CCN(C(=O)c1cc(F)ccc1Oc1cncnc1N1CC2(CCN(C(=O)[C@H]3NCc4c3cnn4Cc3ccccc3)CC2)C1)C(C)C [Example 44]
4.4	120	COCCN(C(=O)c1cc(F)ccc1Oc1cncnc1N1CC2(CCN(C(=O)[C@@H]3C[C@@H](F)CN3)CC2)C1)C(C)C [Example 50]
11	308	CCN(C(=O)c1cc(F)ccc1Oc1nncnc1N1CC2(CCN(C(=O)[C@@H]3NCCC3(C)C)CC2)C1)C(C)C [Example 66]
12.9	40.7	CCN(C(=O)c1cc(F)ccc1Oc1cncnc1N1CC2(CCN(C(=O)[C@@H]3C[C@@]4(C)C[C@H]4N3)CC2)C1)C(C)C [Example 9]
8.7	127	CCN(C(=O)c1cc(F)ccc1Oc1cncnc1N1CC2(CCN(C(=O)[C@@H]3C[C@]4(CN3)CC4(F)F)CC2)C1)C(C)C [Example 23]
20.9	329	CCN(C(=O)c1cc(F)ccc1Oc1cncnc1N1CC2(CCN(C(=O)[C@@H]3C[C@H](F)CN3)CC2)C1)C(C)C [Example 3]
6	33.8	CCN(C(=O)c1cc(F)ccc1Oc1cncnc1N1CC2(CCN(C(=O)[C@@H]3C[C@]4(C)C[C@@H]4N3)CC2)C1)C(C)C [Example 6]
4.5	26.7	CC(C)N(CCO)C(=O)c1cc(F)ccc1Oc1nncnc1N1CC2(CCN(C(=O)[C@H]3NC[C@@H]4CCC[C@@H]43)CC2)C1 [Example 104]
5.4	46.4	CCN(C(=O)c1cc(F)ccc1Oc1nncnc1N1CC2(CCN(C(=O)[C@H]3NCC[C@@H]3C(F)F)CC2)C1)C(C)C [Example 99a, 2-((5-(7-((2S,3S)-3-(difluoromethyl)pyrrolidine-2-carbonyl)-2,7-diazaspiro[3.5]nonan-2-yl)-1,2,4-triazin-6-yl)oxy)-N-ethyl-5-fluoro-N-isopropylbenzamide]
6.7	41	[2H]c1c(F)cc(C(=O)N(CC)C(C)C)c(Oc2cncnc2N2CC3(CCN(C(=O)[C@@H]4C[C@@H](F)CN4)CC3)C2)c1[2H] [Example 31]
6	6.8	CO[C@H]1CCN[C@@H]1C(=O)N1CCC2(CC1)CN(c1ncnnc1Oc1ccc(F)cc1-c1ccc(C#N)nc1C1CC1)C2 [Example 101]

IC50 (Menin-MLL1) [nM]	IC50 (MV-4-11 cells) [nM]	SMILES
6.5	75.4	CCN(C(=O)c1cc(F)ccc1Oc1cncnc1N1CC2(CCN(C(=O)[C@@H]3C[C@H]4C[C@H]4N3)CC2)C1)C(C)C [Example 32]
5.4	4.6	[2H]C([2H])(C)N(C(=O)c1cc(F)ccc1Oc1nncnc1N1CC2(CCN(C(=O)[C@H]3NC[C@@H]4CCC[C@@H]43)CC2)C1)C(C)C [Example 102]
5.8	42.2	CCN(C(=O)c1cc(F)ccc1Oc1cncnc1N1CC2(CCN(C(=O)[C@@H]3CCCN3)CC2)C1)C(C)C [Example 21]
5.5	332	CCN(C(=O)c1cc(F)ccc1Oc1cncnc1N1CC2(CCN(C(=O)[C@H]3NCC[C@@H]3O)CC2)C1)C(C)C [Example 8]
4.7	33.8	CCN(C(=O)c1cc(F)ccc1Oc1cncnc1N1CC2(CCN(C(=O)[C@@H]3C[C@@H]4C[C@@H]4N3)CC2)C1)C(C)C [Example 30]
8	18.8	CCN(C(=O)c1cc(F)ccc1Oc1nncnc1N1CC2(CCN(C(=O)[C@H]3NC[C@H](C)[C@@H]3C)CC2)C1)C(C)C [Example 92]
25.3	317	CCN(C(=O)c1cc(C#N)ccc1Oc1cncnc1N1CC2(CCN(C(=O)[C@@H]3C[C@@H](F)CN3)CC2)C1)C(C)C [Example 17]
4.3	582	CCN(C(=O)c1cc(F)ccc1Oc1cncnc1N1CC2(CCN(C(=O)[C@H]3NCc4[nH]ncc43)CC2)C1)C(C)C [Example 54]
3.4	11.8	N#Cc1ccc(-c2cc(F)ccc2Oc2nncnc2N2CC3(CCN(C(=O)[C@H]4NC[C@@H]5C[C@@H]54)CC3)C2)c(C2CC2)n1 [Example 94]
2.4	2.4	COc1ccc(-c2cc(F)ccc2Oc2nncnc2N2CC3(CCN(C(=O)[C@H]4NC[C@@H]5CCC[C@@H]54)CC3)C2)c(C2CC2)n1 [Example 107]
8.4	232	CCN(C(=O)c1cc(F)ccc1Oc1cncnc1N1CC2(CCN(C(=O)[C@@H]3CC[C@@H](F)CN3)CC2)C1)C(C)C [Example 25]
5.4	26.2	CCN(C(=O)c1cc(F)ccc1Oc1cncnc1N1CC2(CCN(C(=O)[C@H]3NCC[C@H]3C)CC2)C1)C(C)C [Example 40]
22	2640	CCN(C(=O)c1cc(F)ccc1Oc1nncnc1N1CC2(CCN(C(=O)[C@@H]3NC[C@@H]4CC(F)(F)C[C@@H]43)CC2)C1)C(C)C (single isomer, unassigned) [Example 98b]
5.4	333	CCN(C(=O)c1cc(F)ccc1Oc1nncnc1N1CC2(CCN(C(=O)[C@H]3NC[C@H]4CC(F)(F)C[C@H]43)CC2)C1)C(C)C (single isomer, unassigned) [Example 98a]
7.5	220	CCN(C(=O)c1cc(F)ccc1Oc1cncnc1N1CC2(CCN(C(=O)[C@H]3NCC[C@H]3O)CC2)C1)C(C)C [Example 7]
8	102	CCN(C(=O)c1cc(F)ccc1Oc1cncnc1N1CC2(CCN(C(=O)[C@@H]3C[C@@]4(CN3)CC4(F)F)CC2)C1)C(C)C [Example 24]

SMILES	IC50 (Menin-MLL1) [nM]	IC50 (MV-4-11 cells) [nM]
O=C([C@@H]1C[C@@H](F)CN1)N1CCC2(CC1)CN(c1ncncc1Oc1ccc(F)cc1C(=O)N1C3CCC1COC3)C2 [Example 59]	5.5	159
